For 5 compounds, IC50, MIC and IC90 results are on record in patent US10800791B2, “Triazole ACC inhibitors and uses thereof” (Gilead Apollo, LLC, priority 2015, dated 2020).

Converted amounts (≈) assume the structure as drawn.

Assay [1] deals with human (hACC2) (Homo sapiens, UniProt O00763). Description: In vitro ACC inhibition assay (ADP-Glo), hACC2. The following applies: Table 2b, additional results, 5 nM ACC2, 20 μM ATP, 20 μM acetyl-CoA. The assay is classed as biochemical. How it is done: The detailed procedure is as follows. […] 10 μL ADP glo reagent was added. […] 20 μL kinase detection reagent was added.
The subject of assay [2] is C. albicans. Description: Antifungal Activity Assay (broth microtiter MIC), C. albicans. The conditions noted are these: Candida albicans, ATCC90028, 48 h, read-out: MIC, C. albicans ATCC 90028, Table 3b (additional results), 3 replicates, MIC recorded at 48 h. The assay is classed as cell-based, Candida albicans. In short, it runs like this:
(§1)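 Broth microdilution per CLSI M27-A3 in RPMI 1640+MOPS, inoculum 2.5×10^3 CFU/mL final from overnight Sabouraud dextrose agar cultures at 35° C. Compounds diluted from DMSO stock to 128 μg/mL in water. MIC read visually versus growth control at 48 h.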

Assay [3] concerns C. krusei. The assay can be described thus: Antifungal Activity Assay (broth microtiter MIC), C. krusei. The assay is classed as cell-based, Candida krusei. The following applies: Pichia kudriavzevii, ATCC6258, 48 h, read-out: MIC, C. krusei ATCC 6258, Table 3b (additional results), 3 replicates, MIC recorded at 48 h. Summed up: as §1
For assay [4], the system named is C. parapsilosis. Description: Antifungal Activity Assay (broth microtiter MIC), C. parapsilosis. The conditions noted are these: Lodderomyces parapsilosis, ATCC22019, 48 h, read-out: MIC, C. parapsilosis ATCC 22019, Table 3b (additional results), 3 replicates, MIC recorded at 48 h. The assay is classed as cell-based, Candida parapsilosis. Summed up: as §1
Assay [5] has as its system Botrtyis cinerea (Bc). The assay can be described thus: Growth inhibition assay of fungal pathogens, Bc. The assay is classed as cell-based. The following applies: 48 h, read-out: Concentration at 90% Inhibition Bc, Botrtyis cinerea; growth inhibition at 48 hours vs 2% DMSO control. In short, it runs like this:
(§2)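 Read-out: OD600 plus visual rating at 24 and 48 h, blank (media + 2% DMSO) subtracted. Percent inhibition was derived at 48 h versus the 2% DMSO control. Spores were grown in 17% V8 broth with compound at 50/10/2 or 2/0.4/0.08 ppm final.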

Assay [6] deals with Collectotrichum graminicola (Cg). The assay can be described thus: Growth inhibition assay of fungal pathogens, Cg. The assay is classed as cell-based. The conditions noted are these: 48 h, read-out: Concentration at 90% Inhibition Cg, Collectotrichum graminicola; growth inhibition at 48 hours vs 2% DMSO control. In short, it runs like this: as §2
Assay [7] relates to Diplodia maydis (Dm). The assay can be described thus: Growth inhibition assay of fungal pathogens, Dm. The following applies: Stenocarpella maydis, 48 h, read-out: Concentration at 90% Inhibition Dm, Diplodia maydis; growth inhibition at 48 hours vs 2% DMSO control. The assay is classed as cell-based. In short, it runs like this: as §2
Assay [8] has as its system Fusarium moniliforme (Fm). The assay can be described thus: Growth inhibition assay of fungal pathogens, Fm. The assay is classed as cell-based. The conditions noted are these: Fusarium verticillioides, 48 h, read-out: Concentration at 90% Inhibition Fm. Summed up: as §2
In assay [9] the test system is Fusarium virguliforme (Fv). Description: Growth inhibition assay of fungal pathogens, Fv. The assay is classed as cell-based. The conditions noted are these: 48 h, read-out: Concentration at 90% Inhibition Fv, Fusarium virguliforme, growth inhibition at 48 hours vs 2% DMSO control. Summed up: as §2
Assay [10] relates to Phytophthora capsici (Pc). Description: Growth inhibition assay of fungal pathogens, Pc. The assay is classed as cell-based. The following applies: 48 h, read-out: Concentration at 90% Inhibition Pc, Phytophthora capsici, growth inhibition at 48 hours vs 2% DMSO control. In short, it runs like this: as §2
Assay [11] concerns Rhizoctonia solani (Rs). Description: Growth inhibition assay of fungal pathogens, Rs. The assay is classed as cell-based. The following applies: 48 h, read-out: Concentration at 90% Inhibition Rs, Rhizoctonia solani, mycelial plugs, growth inhibition at 48 hours vs 2% DMSO control.
The subject of assay [12] is Septoria tritici (St). Description: Growth inhibition assay of fungal pathogens, St. The assay is classed as cell-based. The conditions noted are these: Zymoseptoria tritici, 48 h, read-out: Concentration at 90% Inhibition St, Septoria tritici; growth inhibition at 48 hours vs 2% DMSO control. In short, it runs like this: as §2
The target of assay [13] is fungal (fACC2) (UniProt Q00955). The following applies: read-out: fACC2 (in vitro ACC2 Inhibition Assay, IC50); Table 2b, additional results; ADP-Glo, 5 nM ACC2, 20 μM ATP, 20 μM acetyl-CoA.
Sequence of fungal (fACC2) (Q00955 whole entry): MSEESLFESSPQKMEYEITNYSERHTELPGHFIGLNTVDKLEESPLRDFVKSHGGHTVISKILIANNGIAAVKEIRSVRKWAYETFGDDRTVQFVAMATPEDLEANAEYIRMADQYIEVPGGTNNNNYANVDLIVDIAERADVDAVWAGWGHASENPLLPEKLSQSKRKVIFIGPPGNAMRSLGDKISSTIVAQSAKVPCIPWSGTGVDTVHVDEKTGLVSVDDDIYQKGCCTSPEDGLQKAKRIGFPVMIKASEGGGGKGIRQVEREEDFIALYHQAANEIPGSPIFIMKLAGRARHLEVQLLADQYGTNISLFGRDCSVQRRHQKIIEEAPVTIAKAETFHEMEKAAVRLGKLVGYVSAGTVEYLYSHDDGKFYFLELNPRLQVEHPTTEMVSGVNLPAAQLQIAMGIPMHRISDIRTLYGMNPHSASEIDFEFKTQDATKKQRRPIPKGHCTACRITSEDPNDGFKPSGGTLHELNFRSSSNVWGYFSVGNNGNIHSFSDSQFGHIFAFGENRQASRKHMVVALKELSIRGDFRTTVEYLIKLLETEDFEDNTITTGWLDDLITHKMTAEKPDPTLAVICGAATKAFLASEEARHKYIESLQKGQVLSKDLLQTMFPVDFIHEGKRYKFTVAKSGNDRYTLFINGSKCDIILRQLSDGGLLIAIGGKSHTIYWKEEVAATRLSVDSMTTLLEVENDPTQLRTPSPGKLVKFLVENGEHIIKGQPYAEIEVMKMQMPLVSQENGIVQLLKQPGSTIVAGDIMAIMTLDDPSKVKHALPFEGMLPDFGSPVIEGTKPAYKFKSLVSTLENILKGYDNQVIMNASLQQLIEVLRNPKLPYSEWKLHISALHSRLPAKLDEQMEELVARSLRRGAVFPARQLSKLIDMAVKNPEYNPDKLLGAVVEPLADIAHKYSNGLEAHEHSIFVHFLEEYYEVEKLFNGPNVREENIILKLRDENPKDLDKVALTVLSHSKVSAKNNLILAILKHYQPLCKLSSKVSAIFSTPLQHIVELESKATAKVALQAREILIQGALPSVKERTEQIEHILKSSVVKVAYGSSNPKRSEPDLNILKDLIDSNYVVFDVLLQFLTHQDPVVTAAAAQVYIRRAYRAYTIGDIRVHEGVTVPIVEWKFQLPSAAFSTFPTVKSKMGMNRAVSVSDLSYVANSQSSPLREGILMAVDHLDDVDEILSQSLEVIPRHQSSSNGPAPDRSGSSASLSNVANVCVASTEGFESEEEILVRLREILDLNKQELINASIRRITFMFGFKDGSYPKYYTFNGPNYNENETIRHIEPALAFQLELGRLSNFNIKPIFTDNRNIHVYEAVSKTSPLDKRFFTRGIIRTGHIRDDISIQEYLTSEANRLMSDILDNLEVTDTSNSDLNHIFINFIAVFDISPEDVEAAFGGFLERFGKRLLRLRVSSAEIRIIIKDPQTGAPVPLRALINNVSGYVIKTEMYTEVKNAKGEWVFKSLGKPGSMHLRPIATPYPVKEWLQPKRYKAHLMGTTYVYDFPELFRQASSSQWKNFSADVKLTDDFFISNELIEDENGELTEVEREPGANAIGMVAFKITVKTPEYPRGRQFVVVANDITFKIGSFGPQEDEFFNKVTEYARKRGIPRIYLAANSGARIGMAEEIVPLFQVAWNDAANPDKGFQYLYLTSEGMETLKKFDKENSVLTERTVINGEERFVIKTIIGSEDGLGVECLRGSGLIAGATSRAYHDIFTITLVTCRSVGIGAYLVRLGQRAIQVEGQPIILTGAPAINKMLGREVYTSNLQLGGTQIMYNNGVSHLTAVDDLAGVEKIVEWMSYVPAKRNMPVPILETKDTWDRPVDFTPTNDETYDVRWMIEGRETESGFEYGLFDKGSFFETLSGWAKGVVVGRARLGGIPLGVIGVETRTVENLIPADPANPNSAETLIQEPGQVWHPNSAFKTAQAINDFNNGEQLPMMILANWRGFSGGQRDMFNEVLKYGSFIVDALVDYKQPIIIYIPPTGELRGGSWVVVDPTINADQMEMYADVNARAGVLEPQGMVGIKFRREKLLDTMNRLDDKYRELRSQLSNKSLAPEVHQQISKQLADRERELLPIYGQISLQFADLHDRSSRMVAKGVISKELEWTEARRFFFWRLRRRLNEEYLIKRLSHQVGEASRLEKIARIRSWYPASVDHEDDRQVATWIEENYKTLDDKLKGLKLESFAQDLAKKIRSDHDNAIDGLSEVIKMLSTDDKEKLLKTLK

Sequence of human (hACC2) (O00763 whole entry): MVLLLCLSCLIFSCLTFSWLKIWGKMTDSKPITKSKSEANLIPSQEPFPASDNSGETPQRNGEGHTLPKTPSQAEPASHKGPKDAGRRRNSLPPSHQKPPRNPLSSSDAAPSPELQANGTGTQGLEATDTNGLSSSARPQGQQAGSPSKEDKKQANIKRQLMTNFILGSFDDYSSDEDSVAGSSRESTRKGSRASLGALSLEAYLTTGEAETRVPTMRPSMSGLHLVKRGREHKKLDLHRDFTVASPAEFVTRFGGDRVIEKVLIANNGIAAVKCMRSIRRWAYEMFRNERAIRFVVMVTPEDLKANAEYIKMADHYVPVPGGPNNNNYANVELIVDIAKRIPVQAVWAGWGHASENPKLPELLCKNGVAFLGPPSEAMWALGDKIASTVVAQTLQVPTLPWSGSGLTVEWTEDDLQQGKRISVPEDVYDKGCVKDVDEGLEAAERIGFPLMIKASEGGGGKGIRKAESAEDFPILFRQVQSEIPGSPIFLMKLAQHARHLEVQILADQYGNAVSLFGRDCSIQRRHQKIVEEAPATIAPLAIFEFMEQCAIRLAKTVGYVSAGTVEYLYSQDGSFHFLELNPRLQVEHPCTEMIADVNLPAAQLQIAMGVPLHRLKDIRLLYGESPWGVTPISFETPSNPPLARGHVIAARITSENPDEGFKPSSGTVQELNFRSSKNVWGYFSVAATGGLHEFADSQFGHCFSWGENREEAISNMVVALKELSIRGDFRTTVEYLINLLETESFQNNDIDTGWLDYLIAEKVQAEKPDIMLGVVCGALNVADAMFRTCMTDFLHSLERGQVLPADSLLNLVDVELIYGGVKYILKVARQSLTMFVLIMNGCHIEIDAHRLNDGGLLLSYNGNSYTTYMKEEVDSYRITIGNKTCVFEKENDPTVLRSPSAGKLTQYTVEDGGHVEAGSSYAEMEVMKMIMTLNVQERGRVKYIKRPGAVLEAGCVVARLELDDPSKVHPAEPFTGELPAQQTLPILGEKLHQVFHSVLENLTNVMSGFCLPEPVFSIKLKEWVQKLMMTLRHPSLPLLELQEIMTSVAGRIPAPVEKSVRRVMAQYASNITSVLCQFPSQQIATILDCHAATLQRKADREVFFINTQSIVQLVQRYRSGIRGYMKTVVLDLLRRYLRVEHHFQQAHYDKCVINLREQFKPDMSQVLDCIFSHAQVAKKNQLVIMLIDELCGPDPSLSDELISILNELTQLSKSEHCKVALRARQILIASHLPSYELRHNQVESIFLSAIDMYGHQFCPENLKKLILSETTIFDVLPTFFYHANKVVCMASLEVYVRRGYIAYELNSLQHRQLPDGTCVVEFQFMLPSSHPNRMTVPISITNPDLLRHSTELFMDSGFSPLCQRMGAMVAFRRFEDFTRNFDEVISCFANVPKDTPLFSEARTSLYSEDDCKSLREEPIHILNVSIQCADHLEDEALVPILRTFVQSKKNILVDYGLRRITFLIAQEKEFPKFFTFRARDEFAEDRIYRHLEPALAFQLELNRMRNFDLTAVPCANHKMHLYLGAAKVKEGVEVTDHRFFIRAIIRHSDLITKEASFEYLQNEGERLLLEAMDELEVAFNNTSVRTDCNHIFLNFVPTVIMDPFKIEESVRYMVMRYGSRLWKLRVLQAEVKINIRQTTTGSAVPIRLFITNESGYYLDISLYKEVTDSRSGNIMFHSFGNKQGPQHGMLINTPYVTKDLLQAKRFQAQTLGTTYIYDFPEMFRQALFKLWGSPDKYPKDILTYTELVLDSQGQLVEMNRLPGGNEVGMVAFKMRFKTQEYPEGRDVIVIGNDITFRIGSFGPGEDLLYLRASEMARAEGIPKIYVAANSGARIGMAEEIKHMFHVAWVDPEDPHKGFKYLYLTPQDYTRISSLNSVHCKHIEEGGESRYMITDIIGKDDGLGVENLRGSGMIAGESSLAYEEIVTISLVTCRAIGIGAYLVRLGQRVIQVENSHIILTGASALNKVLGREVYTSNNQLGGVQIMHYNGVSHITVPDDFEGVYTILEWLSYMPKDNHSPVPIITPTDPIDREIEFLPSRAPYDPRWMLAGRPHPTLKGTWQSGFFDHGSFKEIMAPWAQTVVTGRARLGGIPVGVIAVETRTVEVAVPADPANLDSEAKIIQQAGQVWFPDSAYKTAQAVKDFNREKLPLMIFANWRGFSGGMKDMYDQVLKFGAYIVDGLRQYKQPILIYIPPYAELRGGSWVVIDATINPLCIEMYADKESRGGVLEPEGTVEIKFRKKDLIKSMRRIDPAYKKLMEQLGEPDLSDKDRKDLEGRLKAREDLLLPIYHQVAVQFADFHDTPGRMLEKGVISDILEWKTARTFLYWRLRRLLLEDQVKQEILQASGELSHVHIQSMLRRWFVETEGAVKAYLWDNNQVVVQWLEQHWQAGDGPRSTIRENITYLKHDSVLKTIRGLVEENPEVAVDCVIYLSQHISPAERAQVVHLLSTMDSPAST

Regarding `COc1ccc(F)cc1[C@H](Cn1c(=O)n(C(C)(C)C(=O)NC(C)C)c(=O)c2c(C)c(-n3nccn3)sc21)O[C@H]1CC[C@@H](O)CC1` [Compound I-216], the IC50 in [1] was 5 to 10 nM; in assay [13], 0.3 to 1 nM. The values for the MIC in assay [2], in [3] and in [4] were 0.25 to 1 µg/mL (≈ 0.389 to 1.56 µM), 0.06 to 0.249 µg/mL (≈ 0.0933 to 0.387 µM) and 0.25 to 1 µg/mL (≈ 0.389 to 1.56 µM), respectively. The IC90 in assay [5] is 0.4 µg/mL (≈ 0.622 µM); in assay [6], 2 µg/mL (≈ 3.11 µM); in assay [7], 2 µg/mL (≈ 3.11 µM); in [8] it was 0.08 µg/mL (≈ 0.124 µM); in assay [9], 0.4 µg/mL (≈ 0.622 µM); in assay [10] it was greater than 50 µg/mL. In addition, the IC90 was 0.08 µg/mL (≈ 0.124 µM) in [11] and greater than 50 µg/mL in assay [12].

As for `COc1ccccc1[C@H](Cn1c(=O)n(C(C)(C)C(=O)NC(C)C)c(=O)c2c(C)c(-n3nccn3)sc21)O[C@H]1CC[C@@H](O)CC1` [Compound I-217], the results for the IC50 in assay [1] and in assay [13] were 5 to 10 nM and 0.3 to 1 nM, respectively. The values for the MIC in [2], in [3] and in [4] were 0.25 to 1 µg/mL (≈ 0.4 to 1.6 µM), 0.06 to 0.249 µg/mL (≈ 0.096 to 0.399 µM) and 0.25 to 1 µg/mL (≈ 0.4 to 1.6 µM), respectively. The IC90 in assay [5] was 0.4 µg/mL (≈ 0.64 µM); in assay [6], 2 µg/mL (≈ 3.2 µM); in assay [7], 2 µg/mL (≈ 3.2 µM); in assay [8], 0.08 µg/mL (≈ 0.128 µM); in assay [9], 0.4 µg/mL (≈ 0.64 µM); in assay [10], greater than 50 µg/mL. Moreover, the IC90 in assay [11] was 0.08 µg/mL (≈ 0.128 µM); in assay [12], greater than 50 µg/mL.

In the case of `COc1ccc(F)cc1[C@H](Cn1c(=O)n(C(C)(C)C(=O)NC(C)C)c(=O)c2c(C)c(-n3nccn3)sc21)OCCC(=O)NO` [Compound I-218], the IC50 is 10 to 40 nM in [1] and 1 to 5 nM in assay [13]. The MIC in assay [2], in assay [3] and in assay [4] was 0.25 to 1 µg/mL (≈ 0.396 to 1.58 µM) throughout. Besides, the IC90 in [5] was 2 µg/mL (≈ 3.17 µM); in assay [6], 10 µg/mL (≈ 15.8 µM); in assay [7] it was 10 µg/mL (≈ 15.8 µM); in assay [8], 2 µg/mL (≈ 3.17 µM); in [9], 2 µg/mL (≈ 3.17 µM); in assay [10], greater than 50 µg/mL. For the same compound, the IC90 was 2 µg/mL (≈ 3.17 µM) in assay [11] and greater than 50 µg/mL in assay [12].

As to `Cc1c(-n2nccn2)sc2c1c(=O)n(C(C)(C)C(=O)NC1CCC1)c(=O)n2C[C@H](OC(C)C)c1cc(F)ccc1OCC#N` [Compound I-221], the figures for the concentration for half-maximal inhibition (IC50) in [1] and in assay [13] were 5 to 10 nM and 0.3 to 1 nM, respectively. Also, the MIC lay in the range of 1.01 to 2 µg/mL (≈ 1.62 to 3.21 µM) in assay [2], 0.25 to 1 µg/mL (≈ 0.401 to 1.6 µM) in [3] and 0.25 to 1 µg/mL (≈ 0.401 to 1.6 µM) in assay [4]. The IC90 in [5] was 0.4 µg/mL (≈ 0.641 µM); in [6], 2 µg/mL (≈ 3.21 µM); in [7] it was 2 µg/mL (≈ 3.21 µM); in assay [8] it was 0.08 µg/mL (≈ 0.128 µM); in assay [9] it was 0.4 µg/mL (≈ 0.641 µM); in [10], greater than 50 µg/mL. The IC90 is 0.4 µg/mL (≈ 0.641 µM) in assay [11] and greater than 50 µg/mL in assay [12].

Regarding `Cc1c(-n2nccn2)sc2c1c(=O)n(C(C)(C)C(=O)NC(C)C)c(=O)n2C[C@H](O[C@H]1CC[C@@H](O)CC1)c1cc(F)ccc1OCC#N` [Compound I-222], the results for the IC50 in assay [1] and in assay [13] were 5 to 10 nM and 0.3 to 1 nM, respectively. The MIC in [2], in [3] and in assay [4] was 0.25 to 1 µg/mL (≈ 0.374 to 1.5 µM) in each case. In addition, the IC90 was 2 µg/mL (≈ 3 µM) in assay [5]; 2 µg/mL (≈ 3 µM) in [6]; 0.4 µg/mL (≈ 0.599 µM) in [7]; 0.08 µg/mL (≈ 0.12 µM) in [8]; 2 µg/mL (≈ 3 µM) in [9]; greater than 50 µg/mL in assay [10]. In addition, the IC90 in assay [11] is 0.4 µg/mL (≈ 0.599 µM); in assay [12], greater than 50 µg/mL.
